Results: patent US9851358B2, “Methods and pharmaceutical compositions for preventing or reducing metastatic dissemination” (INSERM (Institut National de la Sante et de la Recherche …, priority 2014, dated 2017)
Entries after “also recorded” stand apart in the source; their conditions may differ.

Assays:
MDA-MB-231 cells [1] = assay: Membrane fluidity by EPR (S parameter), MDA-MB-231; type: cell-based, human; conditions: MDA-MB-231, pretreatment with non-cytotoxic dose
Protocol: (§1) Membrane fluidity was determined by a spin-labeling method using EPR, as previously described^27. Briefly, plasma membranes of living cells were labeled by incubating cells for 15 min at 37° C. with 12-doxyl stearic acid (36 μg/mL), a fatty acid with a stable nitroxide radical ring at the C-12 position. Cells were then washed twice with PBS to remove excess 12-doxyl stearic acid and EPR spectra of the labeled samples were acquired at ambient temperature on a Bruker Elexsys EPR spectrometer operating at 3509.25 G center field, 20 mW microwave power, 9.86 GHz microwave frequency, 1.77 G modulation amplitude, and 100 kHz modulation frequency. Fluidity of the spin-labeled membranes was quantified by calculating the S parameter. An increase in the S parameter reflects a decrease in membrane fluidity, and vice versa.

MDA-MB-231 cells [2] = assay: Boyden chamber cell migration, MDA-MB-231; type: cell-based, human; conditions: MDA-MB-231, pretreatment with non-cytotoxic dose, cl-CD95L
Protocol: (§2) Boyden chambers contained membranes with a pore size of 8 μm (Millipore, Molsheim, France). After hydration of the membranes, mesenchymal cells (10^5 cells per chamber) or epithelial cells (3×10^5 cells per chamber) were added to the top chamber in low serum (1%)-containing medium. The bottom chamber was filled with low serum (1%)-containing medium in the presence or absence of cl-CD95L (100 ng/mL). Cells were cultured for 24 h at 37° C. To quantify migration, cells were mechanically removed from the top side of the membrane using a cotton-tipped swab, and migrating cells from the reverse side were fixed with methanol and stained with Giemsa. For each experiment, five representative pictures were taken for each insert, then cells were lyzed and absorbance at 560 nm correlated to the amount of Giemsa stain was measured.

lung cancer cells = conditions: via activation of protein phosphatase 2A; cited from earlier work
NMuMG cells = conditions: cited from earlier work
[3] = system: epithelial cell line MCF7; assay: Membrane fluidity by EPR, MCF7; type: cell-based, human; conditions: MCF7, non-cytotoxic concentration, 48 hours
Protocol: as §1

[4] = system: epithelial cell line MCF7; assay: Boyden chamber cell migration, MCF7; type: cell-based, human; conditions: MCF7, non-cytotoxic concentration
Protocol: as §2

CerS = conditions: cited from earlier work
[5] = system: mesenchymal breast cancer cells; assay: Membrane fluidity by EPR, mesenchymal breast cancer cells; type: cell-based, human; conditions: for CD95-mediated increase in membrane fluidization: 1 μM pre-incubation 60 min, then cl-CD95L 100 ng/mL 30 min
Protocol: FIG. 1. Treatment of mesenchymal breast cancer cells with a non-toxic amount of exogenous C16:0 ceramide reduces plasma membrane fluidity and prevents basal and CD95-mediated cell migration. A. The indicated cells were pre-incubated with or without a non-cytotoxic dose (1 μM) of C16:0 ceramide (C16-Cer) for 60 min, and were then incubated with or without cl-CD95L (100 ng/mL) for 30 min. Membrane fluidity was assessed by EPR. Values are means±SEM of four independent experiments (*, p<0.05; ns, not significant). B. Indicated cells were pretreated with or without C16:0 ceramide ([…]) for 60 min and were then incubated with or without cl-CD95L (100 ng/mL) for 24 h. Cell migration was assessed by the Boyden chamber assay. Bars=70 μm. Giemsa-stained cells that migrated to the lower side of the membrane were lysed and absorbance at 560 nm was recorded. Values represent the means and SEM of three independent experiments (*p<0.05). Membrane fluidity was determined by a spin-labeling method using EPR, as previously described^27. Briefly, plasma membranes of living cells were labeled by incubating cells for 15 min at 37° C. with 12-doxyl stearic acid (36 μg/mL), a fatty acid with a stable nitroxide radical ring at the C-12 position. Cells were then washed twice with PBS to remove excess 12-doxyl stearic acid and EPR spectra of the labeled samples were acquired at ambient temperature on a Bruker Elexsys EPR spectrometer operating at 3509.25 G center field, 20 mW microwave power, 9.86 GHz microwave frequency, 1.77 G modulation amplitude, and 100 kHz modulation frequency. Fluidity of the spin-labeled membranes was quantified by calculating the S parameter. An increase in the S parameter reflects a decrease in membrane fluidity, and vice versa.

[6] = system: mesenchymal breast cancer cells; assay: Boyden chamber cell migration, mesenchymal breast cancer cells; type: cell-based, human; conditions: non-cytotoxic concentration; for basal migration: Boyden chamber 24 h; for CD95-mediated migration: cl-CD95L 100 ng/mL 24 h, Boyden chamber
Protocol: FIG. 1. Treatment of mesenchymal breast cancer cells with a non-toxic amount of exogenous C16:0 ceramide reduces plasma membrane fluidity and prevents basal and CD95-mediated cell migration. A. The indicated cells were pre-incubated with or without a non-cytotoxic dose (1 μM) of C16:0 ceramide (C16-Cer) for 60 min, and were then incubated with or without cl-CD95L (100 ng/mL) for 30 min. Membrane fluidity was assessed by EPR. Values are means±SEM of four independent experiments (*, p<0.05; ns, not significant). B. Indicated cells were pretreated with or without C16:0 ceramide ([…]) for 60 min and were then incubated with or without cl-CD95L (100 ng/mL) for 24 h. Cell migration was assessed by the Boyden chamber assay. Bars=70 μm. Giemsa-stained cells that migrated to the lower side of the membrane were lysed and absorbance at 560 nm was recorded. Values represent the means and SEM of three independent experiments (*p<0.05).
as §2

[7] = system: CD95-mediated PI3K signaling pathway; assay: Akt serine 473 phosphorylation (CD95-mediated PI3K signaling); type: cell-based
Protocol: Cells were lyzed for 30 min at 4° C. in lysis buffer (25 mM HEPES pH 7.4, 1% (v/v) Triton X-100, 150 mM NaCl, and 2 mM EGTA supplemented with a mixture of protease inhibitors). Protein concentration was determined by the bicinchoninic acid method (Pierce, Rockford, Ill., USA) according to the manufacturer's protocol. Proteins were resolved by 8, 10, or 12% SDS-PAGE and transferred to a nitrocellulose membrane (GE Healthcare, Buckinghamshire, UK). The membrane was blocked for 15 min with TBST (50 mM Tris, 160 mM NaCl, and 0.05% (v/v) Tween 20, pH 7.4) containing 5% (w/v) dried skimmed milk (TBSTM), and was then incubated overnight at 4° C. with the primary antibody diluted in TBSTM. The membrane was washed with TBST and was then incubated with peroxidase-labeled anti-mouse IgG1 or IgG2a (CliniSciences, Nanterre, France) for 45 min. Proteins were visualized using the enhanced chemiluminescence substrate kit (ECL RevelBlOt®, Ozyme, Saint Quentin en Yvelines, France).

[8] = system: mesenchymal breast cancer cells; assay: Cytotoxicity of exogenous C16:0 ceramide; type: cell-based, human; conditions: 1 μM

CCCCCCCCC1CC1CCCCCCCC(=O)OCCOCCOC (centres unmarked) [A2C]
basal membrane fluidity (MDA-MB-231 cells [1]): significantly enhanced
CD95-mediated increase in plasma membrane fluidity (MDA-MB-231 cells [1]; then cl-CD95L): significantly enhanced
CD95-mediated migration (MDA-MB-231 cells [2]): stimulated

CCCCCCCCCCCCC/C=C/[C@@H](O)[C@H](CO)NC(C)=O [C2-ceramide]
migration of lung cancer cells in response to nicotine (lung cancer cells): inhibit

gangliotetraosylceramide [Gg4]
reversal of TGF-β-induced EMT (NMuMG cells): does

CCCC[C@@H](C)[C@@H](OC(=O)C[C@@H](CC(=O)O)C(=O)O)[C@H](C[C@@H](C)C[C@H](O)CCCC[C@@H](O)C[C@H](O)[C@H](C)N)OC(=O)C[C@@H](CC(=O)O)C(=O)O [FB1, Fumonisin B1]
CD95-induced membrane fluidity [3]: slightly, but significantly, increased
basal membrane fluidity [3]: slightly, but significantly, increased
CD95-mediated cell migration [4]: enhanced
basal cell migration [4]: enhanced
CerS activity (CerS): selectively inhibits

CCCCCCCCCCCCC/C=C/[C@@H](O)[C@H](CO)NC(=O)CCCCCCCCCCCCCCC [C16-ceramide, N-palmitoyl-D-sphingosine]
CD95-mediated increase in membrane fluidization [5]: inhibited
CD95-mediated increase in membrane fluidization ([5]; listed as C16:0 ceramide): completely inhibited
basal S parameter ([5]; non-cytotoxic concentration (1 μM), increase in S = decrease in fluidity): slightly increased
plasma membrane fluidity ([5]; non-toxic amount of exogenous C16:0 ceramide): reduces
basal migration [6]: impaired
basal migration ([6]; listed as C16:0 ceramide): prevents
CD95-mediated migration [6]: impaired; also recorded: inhibited
CD95-mediated migration ([6]; listed as C16:0 ceramide): prevents
CD95-mediated PI3K signaling pathway (phosphorylation at serine 473 of Akt) [7]: did not affect
cytotoxicity [8]: non-cytotoxic
